Results published in PubChem BioAssay (NCI).
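Each compound was tested at five concentrations against cells in 96-well plates for 48 hours. Definition used: TGI = concentration required for complete inhibition of growth.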

Assays:
Assay in all cases: inhibition of tumour cell growth, NCI panel, 48 h
[1] = test system: 786-0 renal
[2] = test system: A498 renal
[3] = test system: A549 NSCLC
[4] = test system: ACHN renal
[5] = test system: BT-549 breast
[6] = test system: CAKI-1 renal
[7] = test system: CCRF-CEM leukemia
[8] = test system: COLO 205 colon
[9] = test system: DU-145 prostate
[10] = test system: EKVX NSCLC
[11] = test system: HCC-2998 colon
[12] = test system: HCT-116 colon
[13] = test system: HCT-15 colon
[14] = test system: HL-60(TB) leukemia
[15] = test system: HT29 colon
[16] = test system: IGROV1 ovarian
[17] = test system: K-562 leukemia
[18] = test system: KM12 colon
[19] = test system: LOX IMVI melanoma
[20] = test system: M14 melanoma
[21] = test system: MALME-3M melanoma
[22] = test system: MCF7 breast
[23] = test system: MDA-MB-231 breast
[24] = test system: MDA-MB-435
[25] = test system: MDA-N
[26] = test system: MOLT-4 leukemia
[27] = test system: NCI-H226 lung
[28] = test system: NCI-H23 lung
[29] = test system: NCI-H460 lung
[30] = test system: NCI-H522 lung
[31] = test system: NCI/ADR-RES ovarian
[32] = test system: OVCAR-3 ovarian
[33] = test system: OVCAR-4 ovarian
[34] = test system: OVCAR-5 ovarian
[35] = test system: OVCAR-8 ovarian
[36] = test system: PC-3 prostate
[37] = test system: RPMI-8226 leukemia
[38] = test system: RXF 393 renal
[39] = test system: SF-268 CNS
[40] = test system: SF-295 CNS
[41] = test system: SF-539 CNS
[42] = test system: SK-MEL-2 melanoma
[43] = test system: SK-MEL-28 melanoma
[44] = test system: SK-MEL-5 melanoma
[45] = test system: SK-OV-3 ovarian
[46] = test system: SN12C renal
[47] = test system: SNB-19 CNS
[48] = test system: SR leukemia
[49] = test system: SW-620 colon
[50] = test system: T-47D breast
[51] = test system: TK-10 renal
[52] = test system: U251 CNS
[53] = test system: UACC-257 melanoma
[54] = test system: UACC-62 melanoma
[55] = test system: UO-31 renal
[56] = test system: HOP-62 NSCLC
[57] = test system: HOP-92 NSCLC
[58] = test system: SNB-75 CNS
[59] = test system: HS 578T breast

## COc1ccc(-c2nc3cc(F)ccc3s2)cc1O
[1]
  TGI: 55.1 µM
[2]
  TGI: 66.3 µM
[3]
  TGI: > 100 µM
[4]
  TGI: > 100 µM
[5]
  TGI: 54.1 µM
[6]
  TGI: 64 µM
[7]
  TGI: > 100 µM
[8]
  TGI: 94.4 µM
[9]
  TGI: > 100 µM
[10]
  TGI: 60.8 µM
[11]
  TGI: 12.7 µM
[12]
  TGI: > 100 µM
[13]
  TGI: > 100 µM
[14]
  TGI: 66.1 µM
[15]
  TGI: > 100 µM
[16]
  TGI: 81.3 µM
[17]
  TGI: > 100 µM
[18]
  TGI: > 100 µM
[19]
  TGI: 79.3 µM
[20]
  TGI: > 100 µM
[21]
  TGI: > 100 µM
[22]
  TGI: > 100 µM
[23]
  TGI: > 100 µM
[24]
  TGI: > 100 µM
[25]
  TGI: > 100 µM
[26]
  TGI: > 100 µM
[27]
  TGI: > 100 µM
[28]
  TGI: > 100 µM
[29]
  TGI: > 100 µM
[30]
  TGI: 42.1 µM
[31]
  TGI: > 100 µM
[32]
  TGI: > 100 µM
[33]
  TGI: > 100 µM
[34]
  TGI: > 100 µM
[35]
  TGI: > 100 µM
[36]
  TGI: > 100 µM
[37]
  TGI: 77.1 µM
[38]
  TGI: > 100 µM
[39]
  TGI: > 100 µM
[40]
  TGI: 49 µM
[41]
  TGI: > 100 µM
[42]
  TGI: 78 µM
[43]
  TGI: > 100 µM
[44]
  TGI: 59 µM
[45]
  TGI: > 100 µM
[46]
  TGI: > 100 µM
[47]
  TGI: > 100 µM
[48]
  TGI: 47.7 µM
[49]
  TGI: > 100 µM
[50]
  TGI: 46.9 µM
[51]
  TGI: 70 µM
[52]
  TGI: > 100 µM
[53]
  TGI: 61.8 µM
[54]
  TGI: > 100 µM
[55]
  TGI: > 100 µM

## NCc1ccc(O)c(O)c1
[1]
  TGI: > 100 µM
[2]
  TGI: > 100 µM
[3]
  TGI: > 100 µM
[4]
  TGI: > 100 µM
[5]
  TGI: > 100 µM
[6]
  TGI: > 100 µM
[7]
  TGI: > 100 µM
[8]
  TGI: > 100 µM
[9]
  TGI: > 100 µM
[10]
  TGI: > 100 µM
[11]
  TGI: > 100 µM
[12]
  TGI: > 100 µM
[13]
  TGI: > 100 µM
[14]
  TGI: 41 µM
[56]
  TGI: > 100 µM
[57]
  TGI: > 100 µM
[15]
  TGI: > 100 µM
[16]
  TGI: > 100 µM
[17]
  TGI: > 100 µM
[18]
  TGI: > 100 µM
[19]
  TGI: > 100 µM
[20]
  TGI: > 100 µM
[22]
  TGI: > 100 µM
[23]
  TGI: > 100 µM
[24]
  TGI: > 100 µM
[25]
  TGI: > 100 µM
[26]
  TGI: > 100 µM
[27]
  TGI: > 100 µM
[28]
  TGI: > 100 µM
[29]
  TGI: > 100 µM
[31]
  TGI: > 100 µM
[32]
  TGI: > 100 µM
[33]
  TGI: > 100 µM
[34]
  TGI: > 100 µM
[35]
  TGI: > 100 µM
[36]
  TGI: > 100 µM
[37]
  TGI: > 100 µM
[38]
  TGI: > 100 µM
[40]
  TGI: > 100 µM
[41]
  TGI: > 100 µM
[42]
  TGI: > 100 µM
[43]
  TGI: > 100 µM
[44]
  TGI: > 100 µM
[45]
  TGI: > 100 µM
[46]
  TGI: > 100 µM
[47]
  TGI: > 100 µM
[58]
  TGI: > 100 µM
[48]
  TGI: > 100 µM
[49]
  TGI: > 100 µM
[50]
  TGI: > 100 µM
[52]
  TGI: > 100 µM
[53]
  TGI: > 100 µM
[54]
  TGI: > 100 µM
[55]
  TGI: > 100 µM

## CC1=Nc2c(N)nc(N)nc2N(C)C1
[4]
  TGI: > 100 µM
[5]
  TGI: > 100 µM
[6]
  TGI: > 100 µM
[7]
  TGI: > 100 µM
[8]
  TGI: > 100 µM
[9]
  TGI: > 100 µM
[10]
  TGI: > 100 µM
[13]
  TGI: > 100 µM
[14]
  TGI: > 100 µM
[56]
  TGI: > 100 µM
[59]
  TGI: > 100 µM
[16]
  TGI: > 100 µM
[17]
  TGI: > 100 µM
[18]
  TGI: > 100 µM
[20]
  TGI: > 100 µM
[21]
  TGI: > 100 µM
[22]
  TGI: > 100 µM
[23]
  TGI: > 100 µM
[24]
  TGI: > 100 µM
[25]
  TGI: > 100 µM
[26]
  TGI: > 100 µM
[27]
  TGI: > 100 µM
[28]
  TGI: > 100 µM
[29]
  TGI: > 100 µM
[32]
  TGI: > 100 µM
[34]
  TGI: > 100 µM
[35]
  TGI: > 100 µM
[36]
  TGI: > 100 µM
[37]
  TGI: > 100 µM
[38]
  TGI: > 100 µM
[39]
  TGI: > 100 µM
[40]
  TGI: > 100 µM
[41]
  TGI: > 100 µM
[42]
  TGI: > 100 µM
[43]
  TGI: > 100 µM
[44]
  TGI: > 100 µM
[45]
  TGI: > 100 µM
[46]
  TGI: > 100 µM
[47]
  TGI: > 100 µM
[58]
  TGI: > 100 µM
[49]
  TGI: > 100 µM
[50]
  TGI: > 100 µM
[51]
  TGI: > 100 µM
[52]
  TGI: > 100 µM
[53]
  TGI: > 100 µM
[54]
  TGI: > 100 µM
[55]
  TGI: > 100 µM

## O=C(/C=C/c1ccc(OCc2ccccc2)c(OCc2ccccc2)c1)OCc1ccccc1
[1]
  TGI: > 100 µM
[2]
  TGI: > 100 µM
[3]
  TGI: > 100 µM
[4]
  TGI: > 100 µM
[5]
  TGI: > 100 µM
[6]
  TGI: > 100 µM
[8]
  TGI: > 100 µM
[9]
  TGI: > 100 µM
[10]
  TGI: > 100 µM
[11]
  TGI: > 100 µM
[12]
  TGI: > 100 µM
[13]
  TGI: > 100 µM
[14]
  TGI: > 100 µM
[56]
  TGI: > 100 µM
[57]
  TGI: > 100 µM
[15]
  TGI: > 100 µM
[16]
  TGI: > 100 µM
[17]
  TGI: > 100 µM
[18]
  TGI: > 100 µM
[19]
  TGI: > 100 µM
[20]
  TGI: > 100 µM
[21]
  TGI: > 100 µM
[22]
  TGI: > 100 µM
[23]
  TGI: > 100 µM
[24]
  TGI: > 100 µM
[25]
  TGI: > 100 µM
[26]
  TGI: > 100 µM
[27]
  TGI: > 100 µM
[28]
  TGI: > 100 µM
[29]
  TGI: > 100 µM
[30]
  TGI: > 100 µM
[31]
  TGI: > 100 µM
[32]
  TGI: > 100 µM
[33]
  TGI: > 100 µM
[34]
  TGI: > 100 µM
[35]
  TGI: > 100 µM
[36]
  TGI: > 100 µM
[37]
  TGI: > 100 µM
[38]
  TGI: > 100 µM
[39]
  TGI: > 100 µM
[40]
  TGI: > 100 µM
[41]
  TGI: > 100 µM
[42]
  TGI: > 100 µM
[43]
  TGI: > 100 µM
[44]
  TGI: > 100 µM
[45]
  TGI: > 100 µM
[46]
  TGI: > 100 µM
[47]
  TGI: > 100 µM
[58]
  TGI: > 100 µM
[48]
  TGI: > 100 µM
[49]
  TGI: > 100 µM
[50]
  TGI: > 100 µM
[51]
  TGI: > 100 µM
[52]
  TGI: > 100 µM
[53]
  TGI: > 100 µM
[54]
  TGI: > 100 µM
[55]
  TGI: > 100 µM

## O=c1[nH]cnc2c1cnn2Cc1cn(COCC(O)CO)nn1 (stereo unspecified)
[1]
  TGI: > 100 µM
[2]
  TGI: > 100 µM
[3]
  TGI: > 100 µM
[4]
  TGI: > 100 µM
[5]
  TGI: > 100 µM
[6]
  TGI: > 100 µM
[7]
  TGI: > 100 µM
[8]
  TGI: > 100 µM
[9]
  TGI: > 100 µM
[10]
  TGI: > 100 µM
[11]
  TGI: > 100 µM
[12]
  TGI: > 100 µM
[13]
  TGI: > 100 µM
[14]
  TGI: > 100 µM
[56]
  TGI: > 100 µM
[57]
  TGI: > 100 µM
[15]
  TGI: > 100 µM
[16]
  TGI: > 100 µM
[17]
  TGI: > 100 µM
[18]
  TGI: > 100 µM
[19]
  TGI: > 100 µM
[20]
  TGI: > 100 µM
[22]
  TGI: > 100 µM
[23]
  TGI: > 100 µM
[24]
  TGI: > 100 µM
[25]
  TGI: > 100 µM
[26]
  TGI: > 100 µM
[27]
  TGI: > 100 µM
[28]
  TGI: > 100 µM
[30]
  TGI: 62.7 µM
[31]
  TGI: > 100 µM
[32]
  TGI: > 100 µM
[33]
  TGI: > 100 µM
[34]
  TGI: > 100 µM
[35]
  TGI: > 100 µM
[36]
  TGI: > 100 µM
[37]
  TGI: > 100 µM
[40]
  TGI: > 100 µM
[41]
  TGI: > 100 µM
[42]
  TGI: > 100 µM
[43]
  TGI: > 100 µM
[44]
  TGI: > 100 µM
[45]
  TGI: > 100 µM
[46]
  TGI: > 100 µM
[47]
  TGI: > 100 µM
[48]
  TGI: > 100 µM
[49]
  TGI: > 100 µM
[50]
  TGI: > 100 µM
[51]
  TGI: > 100 µM
[52]
  TGI: > 100 µM
[53]
  TGI: > 100 µM
[54]
  TGI: > 100 µM
[55]
  TGI: > 100 µM
